Assay results as given in the supplement of paper PMC10307832.

How the values were obtained:
Experiment in all cases: relative viability (nuclei count vs DMSO), 5 days (fraction); higher = more cells survive
IU1-47 + Trametinib = compound: CC1=CC(=C(N1C2=CC=C(C=C2)Cl)C)C(=O)CN3CCCCC3 [IU1-47] + CC(=O)Nc1cccc(-n2c(=O)n(C3CC3)c(=O)c3c(Nc4ccc(I)cc4F)n(C)c(=O)c(C)c32)c1 [Trametinib] (partner 0.02 µM)
In short: (§1)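 Dosing by pin tool came one day after lung cancer cell lines were seeded in 1536-well plates, using either one drug or a fixed anchor-drug dose plus five library-drug doses (not always all listed) in √10 steps. After 5 days, nuclei were counted on 4× images. Relative viability is treated-well nuclei count divided by vehicle-well nuclei count, and values are medians of duplicate plates.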

IU1-47 + Alpelisib = compound: CC1=CC(=C(N1C2=CC=C(C=C2)Cl)C)C(=O)CN3CCCCC3 [IU1-47] + Cc1nc(NC(=O)N2CCC[C@H]2C(N)=O)sc1-c1ccnc(C(C)(C)C(F)(F)F)c1 [Alpelisib] (partner 2 µM)
In short: as §1

IU1-47 + Phenformin = compound: CC1=CC(=C(N1C2=CC=C(C=C2)Cl)C)C(=O)CN3CCCCC3 [IU1-47] + N=C(N)NC(=N)NCCc1ccccc1 [Phenformin] (partner 250 µM)
In short: as §1

FG-4592 + Vorinostat = compound: Cc1nc(C(=O)NCC(=O)O)c(O)c2ccc(Oc3ccccc3)cc12 [FG-4592] + O=C(CCCCCCC(=O)Nc1ccccc1)NO [Vorinostat] (partner 1 µM)
In short: as §1

LU99A
relative viability (IU1-47 + Trametinib; first compound 0.08 µM): 0.499
relative viability (IU1-47 + Trametinib; first compound 0.253 µM): 0.355
relative viability (IU1-47 + Trametinib; first compound 0.8 µM): 0.606
relative viability (IU1-47 + Trametinib; first compound 2.53 µM): 0.617
relative viability (IU1-47 + Trametinib; first compound 8 µM): 0.543
relative viability (IU1-47 + Alpelisib; first compound 0.08 µM): 0.498
relative viability (IU1-47 + Alpelisib; first compound 0.253 µM): 0.59
relative viability (IU1-47 + Alpelisib; first compound 0.8 µM): 0.488
relative viability (IU1-47 + Alpelisib; first compound 2.53 µM): 0.627
relative viability (IU1-47 + Alpelisib; first compound 8 µM): 0.663
relative viability (IU1-47 + Phenformin; first compound 0.08 µM): 0.846
relative viability (IU1-47 + Phenformin; first compound 0.253 µM): 0.838
relative viability (IU1-47 + Phenformin; first compound 0.8 µM): 0.856
relative viability (IU1-47 + Phenformin; first compound 2.53 µM): 0.813
relative viability (IU1-47 + Phenformin; first compound 8 µM): 0.904
relative viability (FG-4592 + Vorinostat; first compound 0.08 µM): 0.464
relative viability (FG-4592 + Vorinostat; first compound 0.253 µM): 0.523
relative viability (FG-4592 + Vorinostat; first compound 2.53 µM): 0.506
relative viability (FG-4592 + Vorinostat; first compound 8 µM): 0.423

LXF-289
relative viability (IU1-47 + Trametinib; first compound 0.08 µM): 0.689
relative viability (IU1-47 + Trametinib; first compound 0.253 µM): 0.726
relative viability (IU1-47 + Trametinib; first compound 0.8 µM): 0.645
relative viability (IU1-47 + Trametinib; first compound 2.53 µM): 0.68
relative viability (IU1-47 + Trametinib; first compound 8 µM): 0.668
relative viability (IU1-47 + Alpelisib; first compound 0.08 µM): 1.06
relative viability (IU1-47 + Alpelisib; first compound 0.253 µM): 1.09
relative viability (IU1-47 + Alpelisib; first compound 0.8 µM): 1.12
relative viability (IU1-47 + Alpelisib; first compound 2.53 µM): 1.06
relative viability (IU1-47 + Alpelisib; first compound 8 µM): 1.05
relative viability (IU1-47 + Phenformin; first compound 0.08 µM): 0.533
relative viability (IU1-47 + Phenformin; first compound 0.253 µM): 0.563
relative viability (IU1-47 + Phenformin; first compound 0.8 µM): 0.541
relative viability (IU1-47 + Phenformin; first compound 2.53 µM): 0.517
relative viability (IU1-47 + Phenformin; first compound 8 µM): 0.439
relative viability (FG-4592 + Vorinostat; first compound 0.08 µM): 0.776
relative viability (FG-4592 + Vorinostat; first compound 0.253 µM): 0.742
relative viability (FG-4592 + Vorinostat; first compound 0.8 µM): 0.857
relative viability (FG-4592 + Vorinostat; first compound 2.53 µM): 0.736
relative viability (FG-4592 + Vorinostat; first compound 8 µM): 0.797

NCI-H23
relative viability (IU1-47 + Trametinib; first compound 0.08 µM): 0.5
relative viability (IU1-47 + Trametinib; first compound 0.8 µM): 0.305
relative viability (IU1-47 + Trametinib; first compound 2.53 µM): 0.35
relative viability (IU1-47 + Trametinib; first compound 8 µM): 0.38
relative viability (IU1-47 + Alpelisib; first compound 0.08 µM): 0.703
relative viability (IU1-47 + Alpelisib; first compound 0.253 µM): 0.881
relative viability (IU1-47 + Alpelisib; first compound 0.8 µM): 0.723
relative viability (IU1-47 + Alpelisib; first compound 2.53 µM): 0.777
relative viability (IU1-47 + Alpelisib; first compound 8 µM): 0.824
relative viability (IU1-47 + Phenformin; first compound 0.08 µM): 0.757
relative viability (IU1-47 + Phenformin; first compound 0.253 µM): 0.884
relative viability (IU1-47 + Phenformin; first compound 0.8 µM): 0.904
relative viability (IU1-47 + Phenformin; first compound 2.53 µM): 0.678
relative viability (IU1-47 + Phenformin; first compound 8 µM): 0.828
relative viability (FG-4592 + Vorinostat; first compound 0.08 µM): 0.484
relative viability (FG-4592 + Vorinostat; first compound 0.253 µM): 0.451
relative viability (FG-4592 + Vorinostat; first compound 0.8 µM): 0.415
relative viability (FG-4592 + Vorinostat; first compound 2.53 µM): 0.507
relative viability (FG-4592 + Vorinostat; first compound 8 µM): 0.634

NCI-H522
relative viability (IU1-47 + Trametinib; first compound 0.08 µM): 0.826
relative viability (IU1-47 + Trametinib; first compound 0.253 µM): 0.747
relative viability (IU1-47 + Trametinib; first compound 0.8 µM): 0.708
relative viability (IU1-47 + Trametinib; first compound 2.53 µM): 0.715
relative viability (IU1-47 + Trametinib; first compound 8 µM): 0.865
relative viability (IU1-47 + Phenformin; first compound 0.08 µM): 0.577
relative viability (IU1-47 + Phenformin; first compound 0.253 µM): 0.595
relative viability (IU1-47 + Phenformin; first compound 0.8 µM): 0.708
relative viability (IU1-47 + Phenformin; first compound 2.53 µM): 0.585
relative viability (IU1-47 + Phenformin; first compound 8 µM): 0.647
relative viability (FG-4592 + Vorinostat; first compound 0.08 µM): 0.962
relative viability (FG-4592 + Vorinostat; first compound 0.253 µM): 0.794
relative viability (FG-4592 + Vorinostat; first compound 2.53 µM): 0.724
relative viability (FG-4592 + Vorinostat; first compound 8 µM): 0.89

NCI-H1299
relative viability (IU1-47 + Alpelisib; first compound 0.08 µM): 1.05
relative viability (IU1-47 + Alpelisib; first compound 0.253 µM): 1.11
relative viability (IU1-47 + Alpelisib; first compound 0.8 µM): 1.13
relative viability (IU1-47 + Alpelisib; first compound 2.53 µM): 1.13
relative viability (IU1-47 + Alpelisib; first compound 8 µM): 0.987

NCI-H1563
relative viability (IU1-47 + Alpelisib; first compound 0.08 µM): 0.909
relative viability (IU1-47 + Alpelisib; first compound 0.253 µM): 0.87
relative viability (IU1-47 + Alpelisib; first compound 0.8 µM): 0.871
relative viability (IU1-47 + Alpelisib; first compound 2.53 µM): 0.942
relative viability (IU1-47 + Alpelisib; first compound 8 µM): 0.816
relative viability (IU1-47 + Phenformin; first compound 0.08 µM): 0.657
relative viability (IU1-47 + Phenformin; first compound 0.253 µM): 0.691
relative viability (IU1-47 + Phenformin; first compound 0.8 µM): 0.629
relative viability (IU1-47 + Phenformin; first compound 2.53 µM): 0.709
relative viability (IU1-47 + Phenformin; first compound 8 µM): 0.584

NCI-H1623
relative viability (IU1-47 + Phenformin; first compound 0.08 µM): 0.634
relative viability (IU1-47 + Phenformin; first compound 0.253 µM): 0.61
relative viability (IU1-47 + Phenformin; first compound 0.8 µM): 0.642
relative viability (IU1-47 + Phenformin; first compound 2.53 µM): 0.576
relative viability (IU1-47 + Phenformin; first compound 8 µM): 0.551

NCI-H1648
relative viability (IU1-47 + Trametinib; first compound 0.08 µM): 0.624
relative viability (IU1-47 + Trametinib; first compound 0.253 µM): 0.535
relative viability (IU1-47 + Trametinib; first compound 0.8 µM): 0.463
relative viability (IU1-47 + Trametinib; first compound 2.53 µM): 0.407
relative viability (IU1-47 + Trametinib; first compound 8 µM): 0.391
relative viability (FG-4592 + Vorinostat; first compound 0.08 µM): 0.481
relative viability (FG-4592 + Vorinostat; first compound 0.253 µM): 0.683
relative viability (FG-4592 + Vorinostat; first compound 2.53 µM): 0.349
relative viability (FG-4592 + Vorinostat; first compound 8 µM): 0.708

NCI-H1650
relative viability (IU1-47 + Trametinib; first compound 0.08 µM): 0.515
relative viability (IU1-47 + Trametinib; first compound 0.253 µM): 0.766
relative viability (IU1-47 + Trametinib; first compound 0.8 µM): 0.612
relative viability (IU1-47 + Trametinib; first compound 2.53 µM): 0.62
relative viability (IU1-47 + Trametinib; first compound 8 µM): 0.459
relative viability (IU1-47 + Phenformin; first compound 0.08 µM): 0.412
relative viability (IU1-47 + Phenformin; first compound 0.253 µM): 0.367
relative viability (IU1-47 + Phenformin; first compound 0.8 µM): 0.419
relative viability (IU1-47 + Phenformin; first compound 2.53 µM): 0.366
relative viability (IU1-47 + Phenformin; first compound 8 µM): 0.326
relative viability (FG-4592 + Vorinostat; first compound 0.08 µM): 0.762
relative viability (FG-4592 + Vorinostat; first compound 0.253 µM): 0.53
relative viability (FG-4592 + Vorinostat; first compound 0.8 µM): 0.502
relative viability (FG-4592 + Vorinostat; first compound 2.53 µM): 0.55
relative viability (FG-4592 + Vorinostat; first compound 8 µM): 0.465

NCI-H1703
relative viability (IU1-47 + Alpelisib; first compound 0.08 µM): 0.264
relative viability (IU1-47 + Alpelisib; first compound 0.253 µM): 0.273
relative viability (IU1-47 + Alpelisib; first compound 0.8 µM): 0.286
relative viability (IU1-47 + Alpelisib; first compound 2.53 µM): 0.355
relative viability (IU1-47 + Alpelisib; first compound 8 µM): 0.301

NCI-H1792
relative viability (IU1-47 + Trametinib; first compound 0.08 µM): 0.569
relative viability (IU1-47 + Trametinib; first compound 0.253 µM): 0.392
relative viability (IU1-47 + Trametinib; first compound 0.8 µM): 0.437
relative viability (IU1-47 + Trametinib; first compound 2.53 µM): 0.402
relative viability (IU1-47 + Trametinib; first compound 8 µM): 0.422
relative viability (IU1-47 + Alpelisib; first compound 0.08 µM): 0.824
relative viability (IU1-47 + Alpelisib; first compound 0.253 µM): 0.708
relative viability (IU1-47 + Alpelisib; first compound 0.8 µM): 0.647
relative viability (IU1-47 + Alpelisib; first compound 2.53 µM): 0.444
relative viability (IU1-47 + Alpelisib; first compound 8 µM): 0.55
relative viability (IU1-47 + Phenformin; first compound 0.08 µM): 0.302
relative viability (IU1-47 + Phenformin; first compound 0.253 µM): 0.249
relative viability (IU1-47 + Phenformin; first compound 0.8 µM): 0.197
relative viability (IU1-47 + Phenformin; first compound 2.53 µM): 0.174
relative viability (IU1-47 + Phenformin; first compound 8 µM): 0.183

NCI-H2342
relative viability (IU1-47 + Trametinib; first compound 0.08 µM): 0.85
relative viability (IU1-47 + Trametinib; first compound 0.253 µM): 0.882
relative viability (IU1-47 + Trametinib; first compound 0.8 µM): 1.05
relative viability (IU1-47 + Trametinib; first compound 2.53 µM): 0.973
relative viability (IU1-47 + Trametinib; first compound 8 µM): 0.89
relative viability (IU1-47 + Phenformin; first compound 0.08 µM): 0.628
relative viability (IU1-47 + Phenformin; first compound 0.253 µM): 0.558
relative viability (IU1-47 + Phenformin; first compound 0.8 µM): 0.694
relative viability (IU1-47 + Phenformin; first compound 2.53 µM): 0.552
relative viability (IU1-47 + Phenformin; first compound 8 µM): 0.593
relative viability (FG-4592 + Vorinostat; first compound 0.08 µM): 0.701
relative viability (FG-4592 + Vorinostat; first compound 0.253 µM): 0.721
relative viability (FG-4592 + Vorinostat; first compound 0.8 µM): 0.697
relative viability (FG-4592 + Vorinostat; first compound 2.53 µM): 0.681
relative viability (FG-4592 + Vorinostat; first compound 8 µM): 0.651

SW 900
relative viability (IU1-47 + Trametinib; first compound 0.08 µM): 0.876
relative viability (IU1-47 + Trametinib; first compound 0.8 µM): 0.783
relative viability (IU1-47 + Trametinib; first compound 2.53 µM): 0.881
relative viability (IU1-47 + Trametinib; first compound 8 µM): 0.716
relative viability (IU1-47 + Phenformin; first compound 0.08 µM): 0.628
relative viability (IU1-47 + Phenformin; first compound 0.253 µM): 0.539
relative viability (IU1-47 + Phenformin; first compound 0.8 µM): 0.444
relative viability (IU1-47 + Phenformin; first compound 2.53 µM): 0.532
relative viability (IU1-47 + Phenformin; first compound 8 µM): 0.661
relative viability (FG-4592 + Vorinostat; first compound 0.253 µM): 0.388
relative viability (FG-4592 + Vorinostat; first compound 2.53 µM): 0.548
relative viability (FG-4592 + Vorinostat; first compound 8 µM): 0.469
